Six compounds from ChEMBL document CHEMBL1152444, “Terretonins E and F, inhibitors of the mitochondrial respiratory chain from the marine-derived fungus Aspergillus insuetus (#)” (J Nat Prod, 2009) can be followed below.

The source made the active and inactive calls. The rule behind the calls is not given here.

For the first assay, the species on record is Bos taurus. The experiment in a line: (§1) Inhibition of NADH oxidase in beef heart submitochondrial particles by end-window spectrophotometry.
For `O=c1ccn([C@@H]2O[C@H](CO)[C@@H](O)[C@H]2O)c(=O)[nH]1`, the result was inactive.

Target in a further assay: not listed separately
The description is as §1. Also on record: species or system Bos taurus.
`C=CC(C)(C)c1[nH]cnc1/C=C1/NC(=O)[C@H](C(C)C)NC1=O` [AURANTIAMINE] had an IC50 of 15100 nM. With `CCCCCCCCCC[C@H](O)[C@H]1CC[C@H]([C@H]2CC[C@H]([C@H](O)CCCCCCCCCCCCC3C(=O)O[C@@H](C)[C@@H]3O)O2)O1` (stereo partly specified) [LAHERRADURIN], it took 0.18 nM to reach half-maximal inhibition (IC50). Consider `C=C(C)[C@H]1Cc2c(ccc3c2O[C@@H]2COc4cc(OC)c(OC)cc4[C@@H]2C3=O)O1` [ROTENONE], for which the midpoint of inhibition, the IC50, lay at 5.1 nM. Regarding `C=C1C[C@@H]2[C@]3(C)C(=C(O)C(=O)[C@@]2(C)[C@]2(C(=O)OC)C(=O)O[C@H](C)C(=O)[C@@]12C)C(C)(C)C(=O)C[C@@H]3O` [terretonin E], half-maximal inhibition (IC50) required 3900 nM. `C=C1C[C@@H]2[C@@]3(C)C=CC(=O)C(C)(C)C3=C(O)C(=O)[C@@]2(C)[C@]2(C(=O)OC)C(=O)O[C@H](C)C(=O)[C@@]12C` [terretonin F] yielded an IC50 of 2970 nM.
